Patent publication US5792742A, “Fibrin-binding peptide fragments of fibronectin” (New York University, priority 1994, dated 1998)
Entries after “also recorded” stand apart in the source; their conditions may differ. Like-named read-outs stand apart in the source and are kept apart here. Values belong to the substance of their own block, whether it stands above or below them.

Assays:
fibrin [1] = conditions: for IC50: read-out: IC50, 50% inhibition of binding of biotinylated Fn to fibrin, 200 ng fibrin, 1 hour 22° C.
Protocol: Since the anti-Fn detection system described for the ELISA above could not be used in Fn competition assays employing the intact Fn molecule or the 25.8 kDa proteolytic fragment, purified Fn was biotinylated using water soluble NHS-LC-Biotin (Pierce Chemm. Co.; according to the manufacturer's instructions) and binding to fibrin detected by alkaline phosphatase conjugated streptavidin (diluted 1/500 in FBBT/BSA) for 1 hour at 22° C., followed by the addition of p-nitrophenyl phosphate, as described above. To ensure that the biotinylation of the Fn had not affected its ability to bind to fibrin, fibrin-binding activity was tested by incubating increasing concentrations of biotinylated Fn (10-300 ng/0.1 ml FBB) with the fibrin-coated wells (200 ng) and detected (see FIG. 28A) using alkaline phosphatase-conjugated streptavidin and the reaction developed as described for Direct Elisa.
To compare the relative fibrin-binding affinities of the ^4 F1.^5 F1 recombinant module pair and the 25.9 kDa proteolytic fragment (^1 F1-^5 F1) with that of the native Fn molecule, these purified proteins were competed with biotinylated plasma Fn for binding to fibrin coated wells and the extent of inhibition of binding assessed by incubation with alkaline phosphatase-conjugated streptavidin. […] Biotinylated Fn (100 ng/0.1 ml FBB: 2.3 nM) was combined with increasing concentrations (0-10 μM) of either unlabeled Fn, the 25.9 kDa proteolytic fragment, or the separate ^4 F1.^5 F1, and ^10 F1 recombinant modules and incubated with the fibrin-coated microtiter wells for 1 hour at 22° C. […] Bound biotinylated Fn was quantitated as described above.

fibrin [2] = assay: ELISA: competitive inhibition of fibronectin binding to fibrin by type 1 recombinant modules; conditions: for maximum inhibition of Fn binding to fibrin: saturating concentration
Protocol: Fibrin-binding activity was also assessed by an ELISA. Fn was reacted with fibrin-coated microtiter plates and bound Fn was determined by incubation with a polyclonal rabbit anti-Fn antiserum followed by alkaline phosphatase-labeled anti-rabbit Ig. […] Thus, on a mole-per-mole basis, assuming complete attachment of all the fibrinogen applied to the polystyrene plate, total proteolytic conversion to fibrin, and accessibility of the binding sites, 0.8 moles of Fn per mole of fibrin were required to achieve maximum binding (assuming a molecular weight of 340 kDa for the fibrin hexamer and 440 kDa for the Fn dimer).
The recombinant Fn modules were used to inhibit the binding of Fn to the fibrin-coated microtiter plates. […] At this saturating concentration, the binding of Fn to fibrin was inhibited by 70%.

fibrin [3] = assay: Direct binding ELISA on fibrin-coated microtiter plates; conditions: for binding to fibrin-coated wells: ELISA, room temperature, 1 hr
Protocol: The preparation of fibrin coated microtiter plates was adapted from a method described by Christman et al., Biochim. Biophys. Acta. […] Microtiter (Immulon) plates were coated with fibrinogen at a concentration of 50-1000 ng/well/0.1 ml of Tris buffered saline (TBS). The plates were dried for 24 hours at 37° C. and 0.1 ml of thrombin (20 NIH units/100 ml) containing TRASYLOL™ (aprotinin) (400 K.I units/100 ml) in TBS was added to each well and the plates incubated for 2 hours at 37° C. Each well is washed one time with PBS and the plates are blocked for 1.5 hours with 1% BSA in TBS to prevent non-specific binding. A constant concentration of fibronectin and the 11 kDa fibrin-binding polypeptide (500 ng/0.1 ml) in 50 mM Tris-HCl, 0.1M NaCl, pH 7.6 (FBB) were incubated separately with fibrin coated microtiter wells (50-1000 ng) for 1 hr at room temperature (23° C.).
The wells were washed three times with FBB containing 0.05% Tween 20 (FBBT) and incubated for 1 hour with 0.05 ml of the a polyclonal anti-fibronectinantiserum (Calbiochem) or the purified IgG fraction of anti-11 kDa rabbit antisera, respectively, at a concentration of 1 μg/ml in FBBT containing 0.1% BSA (FBBT/BSA). Following three washes with FBBT, the wells were incubated with 0.05 ml of alkaline phosphatase labeled goat anti-rabbit IgG (TAGO) at a concentration of 2 μg/ml in FBBT/BSA, for 1 hour. The reaction was developed with 0.05 ml of […] p-nitrophenyl phosphate (Sigma phosphatase substrate tablets) in 10% diethanolamine, pH 9.8 containing 1 mM MgCl2.
2. […] Binding of ^4 F1.^5 F1 to fibrin coated microtiter plates was examined by ELISA as described above. Microtiter wells were coated with fibrin (50-1000 ng) and blocked, as described earlier, and incubated with the module pair ^4 F1.^5 F1 (500 ng/0.1 ml or 1000 ng/0.1 ml in FBB) for 1 hour, at room temperature.
Fibrin-binding activity was also assessed by an ELISA. Fn was reacted with fibrin-coated microtiter plates and bound Fn was determined by incubation with a polyclonal rabbit anti-Fn antiserum followed by alkaline phosphatase-labeled anti-rabbit Ig.

fibrin [4] = assay: Binding of 35S-methionine labeled recombinant proteins (COS cell supernatants) to fibrin-SEPHAROSE, autoradiogram quantitation
Excerpt: Recombinant proteins from both the N-terminal and C-terminal fibrin binding sites of the Fn molecule were expressed by transfection into ^35 S-labeled (methionine) COS cells, as described by Schwarzbauer, J. Cell Biol., 113:1463-1473 and Sottile et al, J. Biol. Chem., 266:12840-12843, (1991) and their fibrin-binding activity determined by affinity chromatography experiment. The ^35 S-methionive labeled protein from the N-terminal site was a 10.5 kDa protein that comprised the ^4 F1.^5 F1 modules (^4 F1.^5 F1). The ^35 S-methionive labeled 25 kDa recombinant protein from the C-terminal fibrin binding site of Fn expressed by the COS cells commenced in the ^10 F1 and extended to the end of the molecule (^10 F1-end). For the affinity chromatography experiments each of the cell culture supernatants that contained the separately expressed proteins (1.5 ml) were combined with 0.4 ml of a fibrin-SEPHAROSE affinity matrix and incubated overnight at 4 C. with end over rotation. Upon removal of the supernatant by centrifugation, the matrices were washed extensively with FBB (10 times with a 0.5 ml wash volume each ); after each wash the matrices were centrifuged and the supernatants removed. […] Aliquots (50 ul) of each fraction was counted in a LS 6000 Scintilation Counter, the corresponding fractions pooled, and analyzed by SDS-PAGE followed by autoradiography. The autoradiograms were exposed for two weeks and scanned with a pdi Desktop Scanner. […] As a control, to indicate the relative level of expression of the recombinant proteins and to confirm their position in the autoradiograms, an aliquot of each COS cell culture supernatant was immunoprecipited with an anti-fibronectin antibody and compared with the ^35 S-labeled proteins retained by the fibrin affinity chromatography matrices by SDS-PAGE and autoradiography. […] The Protein A-Sepharose beads were separated by centrifugation, washed two times with Tris-buffered saline, resuspended in Laemmli sample buffer and applied to SDS-PAGE.
FIG. 30 illustrates the binding of ^35 S-methionine labeled recombinant modules from both the N- (^4 F1.^5 F1) and C-terminal (^10 F1-end) fibrin binding sites of Fn to fibrin-SEPHAROSE affinity matrices. […] The results of the autoradiograms are represented by the graphs which indicate the image analysis of the bound recombinant proteins.

fibrin [5] = assay: Fibrin-SEPHAROSE affinity chromatography (binding and elution); parameters: species or system bovine
Protocol: Bovine fibrinogen was cross-linked to CNBr-activated SEPHAROSE™ (5 mg/ml beads) according to the manufacturer's instructions. Coupled fibrinogen was subsequently converted to fibrin by incubation with human thrombin to a final concentration of 5 NIH units/ml and 100 K.I. (kallikrein inhibitory) units/ml of aprotinin (in 0.05M Tris-HCI buffer, pH 7.6, containing 0.1M NaCl and 0.01M EDTA) for three hours, at room temperature (Gold, et al. (1983) Biochemistry 22, 4113-4119).
1.0M NaCl in 0.05M tris buffer, pH 8.0.
The fibrin-binding activity of the proteolytically derived 25.9 kDa fragment of Fn was determined by its ability to bind to a fibrin affinity matrix. […] FBB was used to equilibrate and wash the column. Following warming of the column to 22° C., the column was washed with FBB until absorbance at 280 nm (A280) was less than 0.01, and bound protein eluted with 0.05M Tris-HCl, 0.5M NaCl, 6M urea buffer, pH 7.6.
The module (500 μg/1.0 ml) was incubated for 4 hours (while rotating) at 4° C. in the presence of 1.0 ml fibrin-SEPHAROSE™ (5 mg fibrin/ml SEPHAROSE™ beads) equilibrated in […] Tris-HCl, 0.1M NaCl buffer, pH 7.6.
The 11 KDa peptide (50 μg/0.206 ml) was radiolabeled using the IODO-BEAD method (Pierce Chemical). The peptide was added to one IODO-BEAD in the presence of 100 μCi ^125 I (17.4 Ci/mg, New England Nuclear) and incubated on ice for 10 minutes. The bead was removed and the free ^125 I removed by chromatography through a PD10 column containing SEPHADEX™ G-25 (Pharmacia). […] The radioiodinated 11 kDa fibrin-binding peptide (500 μg/1.5 ml) was combined with 1 ml of fibrin-SEPHAROSE™ (5 mg fibrin/ml beads) equilibrated with 50 mM Tris-HCl, 0.1M NaCl buffer, pH 7.6, and rotated for 4 hours, at 4° C. The mixture was poured onto a disposable column (0.6 cm×8.0) and the unbound protein washed through. The column was equilibrated to room temperature and washed with the equilibration buffer.

fibrin [6] = assay: Reversibility (displacement) of 125I-11 kDa FBP binding to fibrin; conditions: negative control
Protocol: Detachable microtiter wells previously coated with 15 ng of fibrin were incubated with 100 ng/0.1 ml FBB (90 nM) of ^125 I-11 kDa for 1 hour at 22° C. The unbound radiolabeled protein was removed by extensive washing with FBB containing 0.1% Tween 20. […] The iodinated 11 kDa that remained bound to the removable wells was determined by quantitating the radioactivity attached to the individual wells in a gamma counter. Results were expressed as percentage of control wells incubated with buffer alone.

[7] = 35S-methionine labeled, optical density of autoradiogram

Substance: ^4 F1.^5 F1: recombinant 93 amino acid module pair, fourth and fifth type 1 modules of human fibronectin, residues 152-244 of SEQ ID NO:1
- amount relative to antibody (w/w) used to obtain maximal inhibition (fibrin [1]): 16 times
- blocked binding of fibronectin to fibrin (summary, FIG. 29) (fibrin [1]): 36%
- maximal inhibition of biotinylated Fn binding to fibrin (fibrin [1]; 10 μM of protein (5,000 molar excess)): 67%
- maximum inhibition of Fn binding to fibrin (FIG. 29) (fibrin [1]; 0.1-25 μg inhibitor, biotinylated Fn 100 ng, fibrin 200 ng): 67%
- IC50 (fibrin [1]; biotinylated Fn 2.3 nM): 700 nM
- concentration at which maximum inhibition was achieved (fibrin [2]; Fn 2.3 nM): 10 µM
- molar excess at maximum inhibition (fibrin [2]; Fn 2.3 nM): 5,000
- molar excess over Fn at 50% inhibition (fibrin [2]; Fn 2.3 nM): 325
- IC50 (fibrin [2]; Fn 100 ng (2.3 nM), fibrin 200 ng, read-out: concentration decreasing Fn binding to fibrin to 50%): 750 nM
- maximum inhibition of Fn binding to fibrin (fibrin [2]): 70%
- binding to fibrin-coated wells (fibrin [3]): bound to fibrin
- relative affinity for fibrin (fibrin [4]): lower affinity
- % of bound protein released by warming to 22° C. (fibrin [4]; [7]): 88%
- elution of protein remaining bound after warming to 22° C. with 1.0M urea and finally 2.0M urea (fibrin [5]): eluted all the remaining bound
- elution of protein remaining bound after warming to 22° C. with 1.0M NaCl (fibrin [5]; 18% of total protein applied remained bound): could not be eluted
- % of protein applied eluted on warming the column to 22° C. (room temperature) (fibrin [5]; FBB buffer): 9%
- % of protein applied eluted with 0.5M NaCl, 6.0M urea buffer (fibrin [5]; after warming to 22° C.): 18%
- % of protein applied retained by fibrin-SEPHAROSE (fibrin [5]; binding at 4° C., 500 μg applied): 27%
- % of protein applied retained by fibrin-Sepharose with increasing amounts applied (fibrin [5]; increasing amounts applied to a fixed volume of fibrin-Sepharose): 25%

Substance: ^10 F1-end: 25 kDa recombinant protein from COS cells commencing in the tenth type 1 module and extending to the end of fibronectin
- relative affinity for fibrin (fibrin [4]): higher relative affinity
- % of bound protein released by warming to 22° C. (fibrin [4]; [7]): 35%
- % of bound protein requiring 6M urea in 0.5M NaCl for elution (fibrin [4]; [7]): 65%

Substance: egg lysozyme: unrelated protein employed as negative control
- displacement of bound 125I-11 kDa FBP (fibrin [6]): unable to disrupt; also recorded: unable to displace

Now from value to substance, other results behind:

- inhibition of the binding of Fn to fibrin (non-binding modules) (fibrin [2]; up to 5,000-50,000 molar excess compared to Fn): < 20%
- binding to fibrin-Sepharose (fibrin [5]): did not bind
Substance: ^7 F1: recombinant seventh type 1 module from human fibronectin, residues 434-484 of SEQ ID NO:1 [reference compound]

- inhibition of biotinylated Fn binding (non-fibrin-binding modules) (fibrin [1]; 0-10 μM competitor, biotinylated Fn 2.3 nM): 10%
- binding to fibrin-Sepharose (fibrin [5]): did not bind
Substance: ^10 F1: recombinant 46 amino acid tenth type 1 module from human fibronectin, residues 2141-2186 of SEQ ID NO:1 [reference compound]
- fibrin binding as single module (fibrin [1]): did not, as a single module, exhibit fibrin-binding

- concentration required for complete inhibition of biotinylated Fn binding (fibrin [1]; biotinylated Fn 2.3 nM): 2.2 µM
- IC50 (fibrin [1]; biotinylated Fn 2.3 nM): 20 nM
- amount giving maximum binding per 550 ng of fibrin (fibrin [3]): approximately 500 ng
- concentration at saturation of binding to fibrin (fibrin [3]; 200 ng Fn to 200 ng of fibrin (5.88 nM)): ~4.54 nM
- moles per mole of fibrin required to achieve maximum binding (fibrin [3]; assuming 340 kDa fibrin hexamer, 440 kDa Fn dimer): 0.8
Substance: fibronectin: purified intact human plasma fibronectin, 440 kDa dimer [reference compound]
- molar excess required for complete inhibition (fibrin [1]; biotinylated Fn 2.3 nM): 1000
- binding to fibrin-coated wells (fibrin [3]): bound to the fibrin-coated wells in a concentration dependent manner

- maximum inhibition of Fn binding to fibrin (fibrin [2]): 55%
Substance: t-PA type 1 module: single type 1 module from tissue plasminogen activator (CRDEKTQMIYQQHQSWLRPVLRSNRVEYCWCNSGRAQCH) [reference compound]
